CPE inhibition and IC50 data for four compounds are collected here from PubChem BioAssay AID504827 (Southern Research Specialized Biocontainment Screening …, 2011).

Active and inactive are the calls of the source. How the calls were made is not given here.

Test [1] in a line: inhibitors of RSV-induced cell death – synthesized compounds, set 10, dose response (AID 504827). The conditions noted are these: RSV-infected cells, CPE inhibition; at 200 µM (top of the series).
Test [2] concerns RSV-infected cells, CPE inhibition. The test is described as above.

In the case of `Cc1cc(NC(=O)[C@@H]2CCCN2S(=O)(=O)c2cccc3cccnc23)n(C(C)(C)C)n1`, the CPE inhibition in test [1] is 4.92% (inactive). What is called IC50 is the midpoint of a concentration-inhibition curve. With `Cc1ccc(Cn2c(=O)n(Cc3ccc(C(=O)Nc4ccncc4)cc3)c(=O)c3ccccc32)cc1`, the IC50 in test [2] was 9.9 µM. The same measure, in the same setting: as for `COc1ccc(C)c(NC(=O)[C@@H]2CCCN2S(=O)(=O)c2cccc3cccnc23)c1`, the figure is 4.6 µM; as for `Cc1ccc(NC(=O)[C@@H]2CCCN2S(=O)(=O)c2cccc3cccnc23)c(C)c1`, 2.1 µM.
